Assay results as given in patent US12599616B2, “Subtituted sulfonylurea and sulfoximineurea derivatives” (Zydus Lifesciences Limited, priority 2020, dated 2026).
pIC50: −log10 of the molar value.

Tested on: IL-1β
Test: In vitro IL-1β inhibition in PMA-differentiated, LPS-primed, ATP-stimulated THP1 cells
Assay type: cell-based
Conditions: Homo sapiens, THP-1; THP1 monocytes differentiated with PMA, primed with 500 ng/ml LPS 4 h, compound 30 min, 5 mM ATP 1 hr; IL-1b in supernatant; read-out: invitro IL-1β inhibitory activity (IC50)
Protocol: THP1 monocytes were differentiated with PMA (100 ng/ml) and incubated at 37° C. for 20 hrs in presence of 5% CO2. 2×10^5 differentiated cells were plated per well of 96 well tissue culture plates. The cells were primed using 500 ng/ml Lipopolysaccharide and incubating for 4 h under the same condition. The cells were then treated with various concentrations of the compounds for 30 min followed by treatment with 5 mM ATP for 1 hr. The supernatants were collected and analyzed by IL-1b (Mabtech Cat #3415-1H-20) or TNF-a (Mabtech; Cat #3510-1H-20) detection kit. The data were analyzed using GraphPad Prism V7.0. Dose Response Curve (DRC) was constructed to determine the IC50 value by fitting percentage cell survival data to the GraphPad Prism using nonlinear regression analysis.

Structure (SMILES) | pIC50
CCN(C)C(C)(C)/C=C/S(=O)(=O)NC(=O)Nc1c2c(cc3c1CCC3)CCC2 [Example 20, (E)-3-(ethyl(methyl)amino)-N-((1,2,3,5,6,7-hexahydro-s-indacen-4-yl)carbamoyl)-3-methylbut-1-ene-1-sulfonamide] | 8.00
CN(C)C(C)(C)/C=C/S(=O)(=NC#N)NC(=O)Nc1c2c(cc3c1CCC3)CCC2 (stereo not drawn) [Example 49, (E)-N′-cyano-3-(dimethylamino)-N-((1,2,3,5,6,7-hexahydro-s-indacen-4-yl)carbamoyl)-3-methylbut-1-ene-1-sulfonimidamide] | 8.19
CN(C1CCC1)C(C)(C)/C=C/S(=O)(=O)NC(=O)Nc1c2c(cc3c1CCC3)CCC2 [Example 21, (E)-3-(cyclobutyl(methyl)amino)-N-((1,2,3,5,6,7-hexahydro-s-indacen-4-yl)carbamoyl)-3-methylbut-1-ene-1-sulfonamide] | 8.22
CC(C)N(C)C(C)(C)/C=C/S(=O)(=O)NC(=O)Nc1c2c(cc3c1CCC3)CCC2 [Example 24, (E)-N-((1,2,3,5,6,7-hexahydro-s-indacen-4-yl)carbamoyl)-3-(isopropyl(methyl)amino)-3-methylbut-1-ene-1-sulfonamide] | 8.12
CC(C)NC/C=C/S(=O)(=O)NC(=O)Nc1c2c(cc3c1CCC3)CCC2 [Example 1, (E)-N-((1,2,3,5,6,7-hexahydro-s-indacen-4-yl)carbamoyl)-3-(isopropylamino)prop-1-ene-1-sulfonamide] | 7.37
CN(C)C/C=C/S(=O)(=O)NC(=O)Nc1c2c(cc3c1CCC3)CC=C2 [Example 36, (E)-3-(dimethylamino)-N-((1,2,3,7-tetrahydro-s-indacen-4-yl)carbamoyl)prop-1-ene-1-sulfonamide] | 8.02
CC(C)N(C)C/C=C/S(=O)(=O)NC(=O)Nc1c2c(cc3c1CCC3)CCC2 [Example 5, (E)-N-((1,2,3,5,6,7-hexahydro-s-indacen-4-yl)carbamoyl)-3-(isopropyl(methyl)amino)prop-1-ene-1-sulfonamide] | 7.70
O=C(Nc1c2c(cc3c1CCC3)CCC2)NS(=O)(=O)/C=C/CN1CCCC1 [Example 18, (E)-N-((1,2,3,5,6,7-hexahydro-s-indacen-4-yl)carbamoyl)-3-(pyrrolidin-1-yl)prop-1-ene-1-sulfonamide] | 8.18

The next lines start with the values.

pIC50 | Structure (SMILES)
7.90 | CC(C)(/C=C/S(=O)(=O)NC(=O)Nc1c2c(cc3c1CCC3)CCC2)N1CCCC1 [Example 42, (E)-N-((1,2,3,5,6,7-hexahydro-s-indacen-4-yl)carbamoyl)-3-methyl-3-(pyrrolidin-1-yl)but-1-ene-1-sulfonamide]
7.96 | CC(C)CN(C)C(C)(C)/C=C/S(=O)(=O)NC(=O)Nc1c2c(cc3c1CCC3)CCC2 [Example 35, (E)-N-((1,2,3,5,6,7-hexahydro-s-indacen-4-yl)carbamoyl)-3-(isobutyl(methyl)amino)-3-methylbut-1-ene-1-sulfonamide]
8.25 | CN(C)C(C)(C)/C=C/S(=O)(=O)NC(=O)Nc1c2c(cc3c1CCC3)CCC2 [Example 6, (E)-3-(dimethylamino)-N-((1,2,3,5,6,7-hexahydro-s-indacen-4-yl)carbamoyl)-3-methylbut-1-ene-1-sulfonamide]
8.42 | CC(C)(/C=C/S(=O)(=NC#N)NC(=O)Nc1c2c(cc3c1CCC3)CCC2)NC(=O)OC(C)(C)C (stereo not drawn) [Example 47, tert-butyl (E)-(4-(N′-cyano-N-((1,2,3,5,6,7-hexahydro-s-indacen-4-yl)carbamoyl)sulfamidimidoyl)-2-methylbut-3-en-2-yl)carbamate]
